Test results from PMC8347464, “Design, Synthesis, and In Vitro Antiproliferative Activity of Hydantoin and Purine Derivatives with the 4-Acetylphenylpiperazinylalkyl Moiety” (Materials, 2021).

Legend:
[1] = test system: HaCaT cells (human immortal keratinocyte); experiment: MTT assay, HaCaT normal cells; assay type: cell-based; details: for IC50: Homo sapiens, HaCaT, MTT, 72 h, mean ± SD, normal cells
From the text: (§1) Primary and metastatic colon cancer (SW480, SW620), metastatic prostate cancer (PC3), and human immortal keratinocyte (HaCaT) cell lines and immortal microvascular endothelial cells (HMEC-1) were obtained from the American Type Culture Collection (ATCC, Rockville, USA) and cultured in recommended medium, namely, MEM (Biowest SAS, France) for the SW480 and SW620 cells, RPMI 1640 (Biowest SAS, Nuaillé, France) for PC3, DMEM (Biowest SAS, France) for HaCaT and MCDB 131 (PAN BioTech, Aidenbach, Germany) for HMEC-1. The SW480 and SW620 cell lines were initiated by A. Leibovitz et al. and derived from a human primary colon adenocarcinoma and lymph node metastasis of the same patient. respectively. PC3 cell cells were initiated from a bone metastasis of a human prostatic adenocarcinoma. HaCaT cells were obtained from adult human skin, while HMEC-1 cells were established from the dermis of a human neonate. Cells were cultured in recommended medium supplemented with 10% FBS (Biowest SAS, Nuaillé, France), penicillin (100 U/mL), streptomycin […] (Gibco Life Technologies, Waltham MA, USA) and incubated at 37 °C under 5% CO2. The culture medium of HMEC-1 cells was additionally supplemented with glutamine (1 mM) and microvascular growth supplement (5%) (MVGS; Gibco, USA). The cells were cultured until 80% confluency was reached, harvested by treatment with 0.25% trypsin 0.02% EDTA (Gibco Life Technologies, Waltham, MA, USA) and subsequently used for further experiments.
(§2) Cell viability was estimated using a conversion of 3-(4,5-dimethylthiazol-2-yl)-2,5-diphenyltetrazolium bromide salt (MTT) to insoluble formazan crystals by mitochondrial dehydrogenases, present in living cells. Cells were cultured in 96-well plates (l × 10^4 cells per well) and incubated for 24 h at 37 °C under 5% CO2. Next, the cells were treated with various concentrations of the tested compounds (ranging from 10 to 180 μM) and incubated for 72 h at 37 °C under 5% CO2. Untreated cells were used as the control. Next, the medium was removed, MTT solution (0.5 mg/mL) was added to each well, and the cells were incubated for 4 h at 37 °C under 5% CO2. After that, the obtained formazan crystals were dissolved in DMSO and isopropanol (1:1, v/v). The optical density of the dissolved crystals was measured at a wavelength of 570 nm using a UVM 340 reader (ASYS Hitech GmbH, Austria). Cell viability was presented as a percent of MTT reduced in treated cells versus control cells. The relative MTT level (%) was calculated as [A]/[B] × 100, where [A] is the absorbance of the test sample, and [B] is the absorbance of the control sample. The IC50 value was estimated using CompuSyn version 1.0.

[2] = test system: SW620 cells (human metastatic colon cancer); experiment: MTT assay, SW620 cells; assay type: cell-based; details: SW-620, 72 h, mean ± SD
From the text: as §1, §2

[3] = test system: PC3 cells (human metastatic prostate cancer); experiment: MTT assay, PC3 cells; assay type: cell-based; details: for IC50: Homo sapiens, PC-3, MTT, 72 h, mean ± SD
From the text: as §1, §2

[4] = test system: SW480 cells (human primary colon cancer); experiment: MTT assay, SW480 cells; assay type: cell-based; details: for IC50: Homo sapiens, SW480, MTT, 72 h, mean ± SD; for effectiveness against SW480 cells (in words): based on IC50, MTT 72 h
From the text: as §1, §2

[5] = test system: panel of 60 human cancer cell lines; set-up: method as in PMID 33387732; details: dose of 10 µM ref 14; cited from earlier work
[6] = test system: human erythrocytes; experiment: Determination of hemolytic activity; assay type: cell-based; details: 10^−6 or 10^−5 M, 37 °C, 30 min, PBS
Experimental: The hemolysis experiment was performed according to the previous report and was approved by the Bioethics Commission at the Lower Silesian Medical Chamber (1/PNHAB/2018). Freshly isolated human erythrocytes were incubated with compound 4 dissolved in DMSO (final concentration of 10^−6 or 10^−5 M) in PBS buffer at 37 °C for 30 min. The samples were then centrifuged and the absorbance of hemoglobin in the supernatants was measured at 540 nm. Additionally, negative (erythrocytes in PBS buffer), positive (erythrocytes in distilled water), and DMSO controls were also performed.

[7] = molecular target: T1, E. coli TP (thymidine phosphorylase, TP/PD-ECGF) (Escherichia coli, UniProt P07650); experiment: Thymidine phosphorylase inhibition; assay type: biochemical; details: 100 µM screening concentration
T1 construct: purchased Sigma T6632
T1 sequence (P07650 whole entry): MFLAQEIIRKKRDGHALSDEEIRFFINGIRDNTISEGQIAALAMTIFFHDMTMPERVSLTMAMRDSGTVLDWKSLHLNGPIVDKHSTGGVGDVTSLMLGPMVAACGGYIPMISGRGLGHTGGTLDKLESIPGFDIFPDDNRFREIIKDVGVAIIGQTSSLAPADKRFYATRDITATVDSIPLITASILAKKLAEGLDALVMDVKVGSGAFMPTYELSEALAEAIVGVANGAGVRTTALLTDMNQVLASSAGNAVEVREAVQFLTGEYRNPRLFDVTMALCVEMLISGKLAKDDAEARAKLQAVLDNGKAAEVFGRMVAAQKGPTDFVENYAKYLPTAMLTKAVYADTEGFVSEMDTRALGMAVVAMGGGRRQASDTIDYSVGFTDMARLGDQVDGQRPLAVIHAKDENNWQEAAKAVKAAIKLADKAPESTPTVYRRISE
Experimental: TP/PD-ECGF (E. coli TP (Sigma T6632)) activity was determined by measuring the absorbance at 290 nm spectrophotometrically, according to the manufacturer′s procedure [25]. Briefly the reaction mixture of 145 µL of potassium phosphate buffer (pH 7.4), 20 µL of 1.5 mM Thymidine 50 monophosphate solution as substrate, and 30 µL of an enzyme (E. coli TP, 0.05 and 0.002 U) was incubated with 5 µL of test materials for 10 min at 25 °C in a 96-well, flat bottom microplate (200 µL). Readings were taking by a microplate reader (SpectraMax Plus384, USA) at 290 nm. The readings were taken continuously after 10, 20, and 30 min by a microplate reader. All assays were performed in triplicate.

[8] = test system: HMEC-1 cells (human immortal microvascular endothelial cells); experiment: MTT assay, HMEC-1 normal cells; assay type: cell-based; details: 72 h, mean ± SD
From the text: Primary and metastatic colon cancer (SW480, SW620), metastatic prostate cancer (PC3), and human immortal keratinocyte (HaCaT) cell lines and immortal microvascular endothelial cells (HMEC-1) were obtained from the American Type Culture Collection (ATCC, Rockville, USA) and cultured in recommended medium, namely, MEM (Biowest SAS, France) for the SW480 and SW620 cells, RPMI 1640 (Biowest SAS, Nuaillé, France) for PC3, DMEM (Biowest SAS, France) for HaCaT and MCDB 131 (PAN BioTech, Aidenbach, Germany) for HMEC-1. The SW480 and SW620 cell lines were initiated by A. Leibovitz et al. and derived from a human primary colon adenocarcinoma and lymph node metastasis of the same patient. respectively. PC3 cell cells were initiated from a bone metastasis of a human prostatic adenocarcinoma. […]
Cell viability was estimated using a conversion of 3-(4,5-dimethylthiazol-2-yl)-2,5-diphenyltetrazolium bromide salt (MTT) to insoluble formazan crystals by mitochondrial dehydrogenases, present in living cells. […] The optical density of the dissolved crystals was measured at a wavelength of 570 nm using a UVM 340 reader (ASYS Hitech GmbH, Austria). […] The relative MTT level (%) was calculated as [A]/[B] × 100, where [A] is the absorbance of the test sample, and [B] is the absorbance of the control sample. […]

SMILES | IC50 [2] [µM] | melting point [°C] | IC50 [3] [µM] | IC50 [4] [µM] | IC50 [1] [µM] | effectiveness against SW480 cells (in words) [4] | growth inhibition (in words) [5] | hemolytic activity against human red blood cells [6] | cytotoxic effect on HaCaT (in words) ([1]; 72-h exposure) | inhibition of thymidine phosphorylase activity [7] [%] | IC50 [8] [µM] | growth-inhibitory potency against PC3 (in words) ([3]; MTT 72 h)
CC(=O)c1ccc(N2CCN(CCCCN3C(=O)NC4(CCCc5ccccc54)C3=O)CC2)cc1 (racemic) [Compound 3, (R,S)-1-(4-(4-(4-Acetylphenyl)piperazin-1-yl)butyl)-3′,4′-dihydro-2′H-spiro[imidazolidine-4,1′-naphthalene]-2,5-dione] | 104 ± 7.36 | 168.8 to 170.2 | 64.5 ± 6.76 | 129 ± 10.8 | 114 ± 8.93 | – | – | – | – | – | – | –
CC(=O)c1ccc(N2CCN(CCCCN3C(=O)NC4(CCc5ccccc54)C3=O)CC2)cc1 (racemic) [Compound 1, (R,S)-1-(4-(4-(4-Acetylphenyl)piperazin-1-yl)butyl)-2′,3′-dihydrospiro[imidazolidine-4,1′-indene]-2,5-dione] | 67 ± 5.24 | 180.2 to 181.3 | 57.6 ± 5.86 | 54.2 ± 3.89 | 41.8 ± 7.62 | effective | – | – | – | – | – | –
CC(=O)c1ccc(NC(=O)Cn2c(Br)nc3c2c(=O)n(C)c(=O)n3C)cc1 [Compound 22e, N-(4-acetylphenyl)-2-[8-bromo-1,3-dimethyl-2,6-dioxo-2,3-dihydro-1H-purin-7(6H)-yl]acetamide] | – | – | – | – | – | – | moderate growth inhibition | – | – | – | – | –
CC(=O)c1ccc(N2CCN(CCCCn3ccn4c5c(=O)n(C)c(=O)n(C)c5nc34)CC2)cc1 [Compound 9, 8-(4-(4-(4-Acetylphenyl)piperazin-1-yl)butyl)-1,3-dimethyl-1H-imidazo[2,1-f]purine-2,4(3H,8H)-dione] | 145 ± 3.76 | 252 to 253 | 101 ± 15.4 | 153 ± 11.3 | 72.8 ± 6.08 | – | – | – | – | – | – | –
CC(=O)c1ccc(N2CCN(CCCCCN3C(=O)NC4(CCCc5ccccc54)C3=O)CC2)cc1 (racemic) [Compound 4, (R,S)-1-(5-(4-(4-Acetylphenyl)piperazin-1-yl)pentyl)-3′,4′-dihydro-2′H-spiro[imidazolidine-4,1′-naphthalene]-2,5-dione] | 12.9 ± 3.16 | 134.3 to 135.1 | 20.6 ± 3.35 | 16.8 ± 2.37 | 36.8 ± 5.32 | effective | – | no hemolytic activity | no significant cytotoxic effect | 21.21 | 149 ± 10.6 | –
CC(=O)c1ccc(N2CCN(CCCCCN3C(=O)NC4(Cc5ccccc5C4)C3=O)CC2)cc1 [Compound 6, (R,S)-1-{5-[4-(4-Acetylophenyl)piperazyn-1-yl]pentyl}-1′,3′-dihydro-2H,5H-spiro[imidazolidine-4,2′-indene]-2,5-dione] | 78.3 ± 4.76 | 157.4 to 157.7 | 95.1 ± 8.4 | 53.7 ± 7.78 | 159 ± 14.1 | effective | – | – | – | – | – | –
CC(=O)c1ccc(N2CCN(CCCCN3C(=O)NC4(Cc5ccccc5C4)C3=O)CC2)cc1 [Compound 5, (R,S)-1-{4-[4-(4-Acetylophenyl)piperazyn-1-yl]butyl}-1′,3′-dihydro-2H,5H-spiro[imidazolidine-4,2′-indene]-2,5-dione] | > 200 | 213.8 to 214.9 | > 200 | 102 ± 2.37 | > 200 | – | – | – | – | – | – | –
CC(=O)c1ccc(N2CCN(CCCCCN3C(=O)NC4(CCc5ccccc54)C3=O)CC2)cc1 (racemic) [Compound 2, (R,S)-1-(5-(4-(4-Acetylphenyl)piperazin-1-yl)pentyl)-2′,3′-dihydrospiro[imidazolidine-4,1′-indene]-2,5-dione] | 43.1 ± 4.41 | 155.3 to 156.2 | 36.2 ± 4.98 | 40.7 ± 3.54 | 22.6 ± 2.69 | effective | – | – | – | – | – | moderate growth-inhibitory potency

The next lines start with results.

IC50 [2] [µM] | melting point [°C] | IC50 [3] [µM] | IC50 [4] [µM] | SMILES | IC50 [1] [µM] | effectiveness against SW480 cells (in words) [4] | growth inhibition (in words) [5] | hemolytic activity against human red blood cells [6] | cytotoxic effect on HaCaT (in words) ([1]; 72-h exposure) | inhibition of thymidine phosphorylase activity [7] [%] | IC50 [8] [µM] | growth-inhibitory potency against PC3 (in words) ([3]; MTT 72 h)
– | – | 0.59 ± 0.02 | 0.29 ± 0.08 | COc1cccc2c1C(=O)c1c(O)c3c(c(O)c1C2=O)C[C@@](O)(C(=O)CO)C[C@@H]3O[C@H]1C[C@H](N)[C@H](O)[C@H](C)O1 [Doxorubicin, reference compound] | 0.24 ± 0.03 | – | – | – | – | – | – | –
> 200 | – | 94.2 ± 8.36 | > 200 | CC(=O)c1ccc(N2CCN(CCCCCn3c(=O)ccn4c5c(=O)n(C)c(=O)n(C)c5nc34)CC2)cc1 [Compound 13, 9-(5-(4-(4-Acetylphenyl)piperazin-1-yl)pentyl)-1,3-dimethylpyrimido[2,1-f]purine-2,4,8(1H,3H,9H)-trione] | 126 ± 14.3 | – | – | – | – | – | – | –
169 ± 22.9 | – | 71.9 ± 9.85 | > 200 | CC(=O)c1ccc(N2CCN(CCCCn3c(=O)ccn4c5c(=O)n(C)c(=O)n(C)c5nc34)CC2)cc1 [Compound 12, 9-(4-(4-(4-Acetylphenyl)piperazin-1-yl)butyl)-1,3-dimethylpyrimido[2,1-f]purine-2,4,8(1H,3H,9H)-trione] | 83.9 ± 4.2 | – | – | – | – | – | – | –
131 ± 12.6 | – | 86.1 ± 9.85 | > 200 | CC(=O)c1ccc(N2CCN(CCCCn3c(C)cn4c5c(=O)n(C)c(=O)n(C)c5nc34)CC2)cc1 [Compound 10, 8-(4-(4-(4-Acetylphenyl)piperazin-1-yl)butyl)-1,3,7-trimethyl-1H-imidazo[2,1-f]purine-2,4(3H,8H)-dione] | 96.1 ± 5.32 | – | – | – | – | – | – | –
97.7 ± 10.7 | – | 60.28 ± 0.4 | > 200 | CC(=O)c1ccc(N2CCN(CCCCCn3ccn4c5c(=O)n(C)c(=O)n(C)c5nc34)CC2)cc1 [Compound 11, 8-(5-(4-(4-Acetylphenyl)piperazin-1-yl)pentyl)-1,3-dimethyl-1H-imidazo[2,1-f]purine-2,4(3H,8H)-dione] | 58.6 ± 4.91 | – | – | – | – | – | – | –
> 200 | – | 91 ± 5.86 | > 200 | CC(=O)c1ccc(N2CCN(CCCCn3c(=O)c(Br)cn4c5c(=O)n(C)c(=O)n(C)c5nc34)CC2)cc1 [Compound 14, 9-(4-(4-(4-Acetylphenyl)piperazin-1-yl)butyl)-7-bromo-1,3-dimethylpyrimido[2,1-f]purine-2,4,8(1H,3H,9H)-trione] | 96.5 ± 4.93 | – | – | – | – | – | – | –
